Values of other authors as cited in patent US20110039841A1, “Novel compounds, their preparation and use” (Novo Nordisk A/S, priority 2004, published 2011).

Key:
C2C12 muscle cells = settings: in vitro, BioChem. Biophys. Acta 2003, 1633, 43-50, Mol. Endocrin. 2003, 17, 2477-2493
PPARδ = biological target: T1, PPARδ (Mus musculus, UniProt P35396); settings: high fat diet induced insulin resistant mice and diabetic ob/ob; PNAS 2003, 100, 15924-15929
T1 construct: pharmacological treatment of both high fat diet induced insulin resistant mice and diabetic ob/ob with the potent PPARδ agonist GW501516; host or cells: mice (high fat diet induced insulin resistant; ob/ob), in vivo
T1 sequence (P35396 1-440): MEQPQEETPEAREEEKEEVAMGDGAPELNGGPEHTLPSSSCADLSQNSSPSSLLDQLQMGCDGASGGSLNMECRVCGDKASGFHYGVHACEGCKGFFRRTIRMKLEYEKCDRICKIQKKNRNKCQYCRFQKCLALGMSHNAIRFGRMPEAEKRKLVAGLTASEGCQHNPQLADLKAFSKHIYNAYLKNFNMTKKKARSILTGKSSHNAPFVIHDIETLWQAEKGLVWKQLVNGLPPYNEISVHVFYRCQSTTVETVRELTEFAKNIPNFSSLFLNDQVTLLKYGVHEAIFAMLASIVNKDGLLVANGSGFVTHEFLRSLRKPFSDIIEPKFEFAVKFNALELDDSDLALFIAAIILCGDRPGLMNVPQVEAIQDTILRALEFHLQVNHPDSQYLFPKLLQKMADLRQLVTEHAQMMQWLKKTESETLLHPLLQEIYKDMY

In the case of Cc1cc(SCc2sc(-c3ccc(C(F)(F)F)cc3)nc2C)ccc1OCC(=O)O [GW501516], the “regulation of genes of lipid metabolism and energy expenditure” value (C2C12 muscle cells) is listed as “regulation of genes involved with TG hydrolysis and FFA oxidation” and the “plasma glucose, insulin and insulin sensitivity” value (PPARδ) is listed as “lowering of plasma glucose and insulin and improved insulin sensitivity”.
